Results as given in patent US20230391729A1, “SUCCINATE SALTS OF N-(3-(4-(3-(DIISOBUTYLAMINO)PROPYL)PIPERAZIN-1-YL)PROPYL)-1H-BENZO[D]IMIDAZOL-2-AMINE, PREPARATION THEREOF AND USE OF THE SAME” (ALZPROTECT, priority 2020, published 2023).

Tested on: microglial cells
Assay: Microglia activation (OX-41) after Aβ1-42 injury
Format: cell-based, rat
Settings: Aβ1-42 injury 72 h; at the investigated doses
Method: Rat cortical neurons cultured with microglia were cultured as described by Callizot et al. in J Neurosci Res. 2013, 91: 706-716 with modifications to include microglial cells. Pregnant female rats (Rats Wistar; Janvier Labs France) of 15 days of gestation were killed, after a deep anesthesia with CO2, by cervical dislocation. Then, fetuses were collected and immediately placed in ice-cold L15 Leibovitz medium with a 2% penicillin (10,000 U/ml) and streptomycin (10 mg/ml) solution (PS) and 1% bovine serum albumin (BSA). Cortexes were treated for 20 min at 37° C. with a trypsin-EDTA solution at a final concentration of 0.05% trypsin and 0.02% EDTA. The dissociation was stopped by addition of Dulbecco's modified Eagle's medium (DMEM) with 4.5 g/liter of glucose, containing DNAse I grade II (final concentration 0.5 mg/ml) and 10% fetal calf serum (FCS). Cells were mechanically dissociated by three forced passages through the tip of a 10-mL pipette. […] Viable cells were counted in a Neubauer cytometer, using the trypan blue exclusion test. […]
Cortical neurons were intoxicated with A3 solutions (see below) after 11 days of culture. […] This solution was gently agitated for 3 days at 37° C. in the dark and immediately used after being properly diluted in control medium to the concentrations used ([…] of Aβ1-42 preparation containing […] of Aβ oligomers (AβO) measured by WB). […]

## N-(3-(4-(3-(diisobutylamino)propyl)piperazin-1-yl)propyl)-1H-benzo[d]imidazol-2-amine sesqui-succinate salt [sesqui-succinate salt Form 1]
  activation of microglial cells (OX41 area): able to decrease the activation of microglial cells
